Measurements from PubChem BioAssay AID256 (DTP/NCI, 2004).
Toxic doses and inconclusive results are not listed.

Test system: CD2F1 mice, L1210 leukemia ip, survival T/C
Assay: NCI In Vivo Anticancer Drug Screen. Data for tumor model L1210 Leukemia (intraperitoneal) in CD2F1 (CDF1) mice
Settings: higher = longer survival
Procedure, shortened: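 Ratio T/C, where T is the treated-group value and C the vehicle-dosed control value, from mice implanted with a transplantable tumor.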

[1] = endpoint: mean survival time, dose: 100.0 mg/kg/injection, schedule: Q04DX003 (ip), vehicle: saline with Tween-80
[2] = endpoint: mean survival time, dose: 200.0 mg/kg/injection, schedule: Q04DX003 (ip), vehicle: saline with Tween-80
[3] = endpoint: mean survival time, dose: 400.0 mg/kg/injection, schedule: Q04DX003 (ip), vehicle: saline with Tween-80
[4] = endpoint: mean survival time, dose: 100.0 mg/kg/injection, schedule: Q01DX009 (ip), vehicle: saline
[5] = endpoint: mean survival time, dose: 100.0 mg/kg/injection, schedule: Q01DX001 (ip), vehicle: saline with Tween-80
[6] = endpoint: mean survival time, dose: 400.0 mg/kg/injection, schedule: Q01DX001 (ip), vehicle: saline with Tween-80
[7] = endpoint: mean survival time, dose: 100.0 mg/kg/injection, schedule: Q04DX002 (ip), vehicle: saline with Tween-80
[8] = endpoint: mean survival time, dose: 200.0 mg/kg/injection, schedule: Q04DX002 (ip), vehicle: saline with Tween-80
[9] = endpoint: mean survival time, dose: 400.0 mg/kg/injection, schedule: Q04DX002 (ip), vehicle: saline with Tween-80
[10] = endpoint: mean survival time, dose: 200.0 mg/kg/injection, schedule: Q01DX001 (ip), vehicle: saline with Tween-80

With `CCC(CC)(C[NH-])C[NH-].[Cl][Pt+2][Cl]` the T/C (endpoint: mean survival time, dose: 1.56 mg/kg/injection, schedule: Q04DX003 (ip), vehicle: saline) was 105 % of control, the T/C (endpoint: mean survival time, dose: 3.12 mg/kg/injection, schedule: Q04DX003 (ip), vehicle: saline) was 118 % of control and the T/C (endpoint: mean survival time, dose: 6.25 mg/kg/injection, schedule: Q04DX003 (ip), vehicle: saline) was 119 % of control. For the same molecule, the T/C (endpoint: mean survival time, dose: 12.5 mg/kg/injection, schedule: Q04DX003 (ip), vehicle: saline with Tween-80) was 319 % of control, the T/C (endpoint: mean survival time, dose: 12.5 mg/kg/injection, schedule: Q04DX003 (ip), vehicle: saline) was 155 % of control and the T/C (endpoint: mean survival time, dose: 25.0 mg/kg/injection, schedule: Q04DX003 (ip), vehicle: saline with Tween-80) was 307 % of control. The T/C (endpoint: mean survival time, dose: 25.0 mg/kg/injection, schedule: Q04DX003 (ip), vehicle: saline) was 227 % of control, the T/C (endpoint: mean survival time, dose: 50.0 mg/kg/injection, schedule: Q04DX003 (ip), vehicle: saline with Tween-80) was 86 % of control and the T/C (endpoint: median survival time, dose: 1.5 mg/kg/injection, schedule: Q01DX009 (ip), vehicle: carboxymethylcellulose (CMC)) was 234 % of control. For the same molecule, the T/C (endpoint: median survival time, dose: 3.0 mg/kg/injection, schedule: Q01DX009 (ip), vehicle: carboxymethylcellulose (CMC)) was 203 % of control, the T/C (endpoint: median survival time, dose: 6.0 mg/kg/injection, schedule: Q01DX001 (ip), vehicle: carboxymethylcellulose (CMC)) was 203 % of control and the T/C (endpoint: median survival time, dose: 6.0 mg/kg/injection, schedule: Q01DX009 (ip), vehicle: carboxymethylcellulose (CMC)) was 109 % of control. The T/C (endpoint: median survival time, dose: 9.0 mg/kg/injection, schedule: Q01DX001 (ip), vehicle: carboxymethylcellulose (CMC)) was 312 % of control, the T/C (endpoint: median survival time, dose: 9.0 mg/kg/injection, schedule: Q01DX009 (ip), vehicle: carboxymethylcellulose (CMC)) was 98 % of control and the T/C (endpoint: median survival time, dose: 12.0 mg/kg/injection, schedule: Q01DX001 (ip), vehicle: carboxymethylcellulose (CMC)) was 312 % of control. The T/C (endpoint: median survival time, dose: 15.0 mg/kg/injection, schedule: Q01DX001 (ip), vehicle: carboxymethylcellulose (CMC)) was 106 % of control.

For `CSc1cc(C)[o+]c(C)c1`, the T/C (endpoint: mean survival time, dose: 12.5 mg/kg/injection, schedule: Q01DX009 (ip), vehicle: Klucel (hydroxypropylcellulose) (HPC)) was 94 % of control, the T/C (endpoint: mean survival time, dose: 25.0 mg/kg/injection, schedule: Q01DX009 (ip), vehicle: Klucel (hydroxypropylcellulose) (HPC)) was 97 % of control and the T/C (endpoint: mean survival time, dose: 50.0 mg/kg/injection, schedule: Q01DX009 (ip), vehicle: Klucel (hydroxypropylcellulose) (HPC)) was 108 % of control. The T/C (endpoint: mean survival time, dose: 100.0 mg/kg/injection, schedule: Q01DX009 (ip), vehicle: Klucel (hydroxypropylcellulose) (HPC)) was 113 % of control and the T/C (endpoint: mean survival time, dose: 200.0 mg/kg/injection, schedule: Q01DX009 (ip), vehicle: Klucel (hydroxypropylcellulose) (HPC)) was 117 % of control.

`CC1=C(N2CC2)C(=O)C2=C(C1=O)N1CC3C(N3C)C1(O)C2COC(N)=O` (stereo unspecified) was tested, and the T/C (endpoint: mean survival time, dose: 3.5 mg/kg/injection, schedule: Q01DX001 (ip), vehicle: carboxymethylcellulose (CMC)) was 122 % of control, the T/C (endpoint: mean survival time, dose: 5.25 mg/kg/injection, schedule: Q01DX001 (ip), vehicle: carboxymethylcellulose (CMC)) was 151 % of control and the T/C (endpoint: mean survival time, dose: 7.0 mg/kg/injection, schedule: Q01DX001 (ip), vehicle: carboxymethylcellulose (CMC)) was 119 % of control.

In the case of `N#CCCC1C(=O)CCCC1=O`, the T/C [1] is reported as 105 % of control, the T/C [2] is reported as 89 % of control and the T/C [3] is reported as 97 % of control.

`O=CC(=O)c1ccc(O)cc1` was tested, and the T/C (endpoint: mean survival time, dose: 6.25 mg/kg/injection, schedule: Q01DX009 (ip), vehicle: saline) was 101 % of control, the T/C (endpoint: mean survival time, dose: 12.5 mg/kg/injection, schedule: Q01DX009 (ip), vehicle: saline) was 97 % of control and the T/C (endpoint: mean survival time, dose: 25.0 mg/kg/injection, schedule: Q01DX009 (ip), vehicle: saline) was 100 % of control. For the same molecule, the T/C (endpoint: mean survival time, dose: 50.0 mg/kg/injection, schedule: Q01DX009 (ip), vehicle: saline) was 103 % of control and the T/C [4] was 108 % of control.

With `C/C(CC(=O)Nc1ccccn1)=N\c1ccccn1` the T/C [1] was 96 % of control and the T/C [2] was 94 % of control.

For `CC1(C)NC(=O)C2CC21C` (stereo unspecified), the T/C (endpoint: mean survival time, dose: 25.0 mg/kg/injection, schedule: Q04DX002 (ip), vehicle: saline) was 96 % of control, the T/C (endpoint: mean survival time, dose: 50.0 mg/kg/injection, schedule: Q04DX002 (ip), vehicle: saline) was 112 % of control and the T/C (endpoint: mean survival time, dose: 100.0 mg/kg/injection, schedule: Q04DX002 (ip), vehicle: saline) was 93 % of control.

`Cc1ccc(NC(=O)NCCCCCCNC(=O)Nc2ccc(C)c(Cl)c2)cc1Cl` was tested, and the T/C [5] was 89 % of control and the T/C [6] was 91 % of control.

For `O=C1C2CCCC1C1/C(=[N+](/[O-])O)C=C([N+](=O)[O-])C2C1[N+](=O)[O-]` (stereo unspecified), the T/C [7] was 98 % of control, the T/C [8] was 98 % of control and the T/C [9] was 110 % of control.

With `Cn1c(=O)cc(C(=O)NCCCN2CCOCC2)c2ccccc21` the T/C [1] was 92 % of control, the T/C [2] was 96 % of control and the T/C [3] was 87 % of control.

For `O=C(COc1cccc(Cl)c1)Nc1ccc(S(=O)(=O)F)cc1`, the T/C [5] was 97 % of control, the T/C [10] was 95 % of control and the T/C [6] was 91 % of control.

With `COc1ccc(/C=N/O)cc1` the T/C (endpoint: mean survival time, dose: 75.0 mg/kg/injection, schedule: Q01DX001 (ip), vehicle: saline) was 102 % of control, the T/C (endpoint: mean survival time, dose: 150.0 mg/kg/injection, schedule: Q01DX001 (ip), vehicle: saline) was 100 % of control and the T/C (endpoint: mean survival time, dose: 300.0 mg/kg/injection, schedule: Q01DX001 (ip), vehicle: saline) was 101 % of control.

With `O=C(/C=C/c1ccccc1)c1cccc([N+](=O)[O-])c1` the T/C [7] was 91 % of control, the T/C [8] was 91 % of control and the T/C [9] was 95 % of control.

With `Nc1nc(N)c2nc(-c3ccccc3Cl)c(-c3ccccc3Cl)nc2n1` the T/C (endpoint: mean survival time, dose: 25.0 mg/kg/injection, schedule: Q04DX002 (ip), vehicle: Klucel (hydroxypropylcellulose) (HPC)) was 91 % of control, the T/C (endpoint: mean survival time, dose: 50.0 mg/kg/injection, schedule: Q04DX002 (ip), vehicle: Klucel (hydroxypropylcellulose) (HPC)) was 98 % of control and the T/C (endpoint: mean survival time, dose: 100.0 mg/kg/injection, schedule: Q04DX002 (ip), vehicle: Klucel (hydroxypropylcellulose) (HPC)) was 95 % of control.

`CSc1nccc2c1nnn2C1OC(CO)C(O)C1O` (stereo unspecified) was tested, and the T/C (endpoint: mean survival time, dose: 12.5 mg/kg/injection, schedule: Q01DX005 (ip), vehicle: other) was 101 % of control, the T/C (endpoint: mean survival time, dose: 25.0 mg/kg/injection, schedule: Q01DX005 (ip), vehicle: other) was 101 % of control and the T/C (endpoint: mean survival time, dose: 50.0 mg/kg/injection, schedule: Q01DX005 (ip), vehicle: other) was 97 % of control. The T/C (endpoint: mean survival time, dose: 100.0 mg/kg/injection, schedule: Q01DX005 (ip), vehicle: other) was 101 % of control and the T/C (endpoint: mean survival time, dose: 200.0 mg/kg/injection, schedule: Q01DX005 (ip), vehicle: other) was 100 % of control.

`CCCCCCSC(=O)NC(C)=O` was tested, and the T/C (endpoint: mean survival time, dose: 100.0 mg/kg/injection, schedule: Q01DX009 (ip), vehicle: saline with Tween-80) was 92 % of control, the T/C [1] was 91 % of control and the T/C (endpoint: mean survival time, dose: 200.0 mg/kg/injection, schedule: Q01DX009 (ip), vehicle: saline with Tween-80) was 94 % of control. The T/C [2] was 94 % of control, the T/C (endpoint: mean survival time, dose: 400.0 mg/kg/injection, schedule: Q01DX009 (ip), vehicle: saline with Tween-80) was 106 % of control and the T/C [3] was 94 % of control.

For `O=C(O)CC(c1ccccc1)C(CC(=O)O)c1ccccc1.[NH-]C1CCCCC1[NH-].[Pt+2]` (stereo unspecified), the T/C (endpoint: median survival time, dose: 3.12 mg/kg/injection, schedule: Q04DX003 (ip), vehicle: saline with Tween-80) was 107 % of control, the T/C (endpoint: median survival time, dose: 3.12 mg/kg/injection, schedule: Q04DX003 (ip), vehicle: saline) was 105 % of control and the T/C (endpoint: median survival time, dose: 6.25 mg/kg/injection, schedule: Q04DX003 (ip), vehicle: saline with Tween-80) was 111 % of control. For the same molecule, the T/C (endpoint: median survival time, dose: 6.25 mg/kg/injection, schedule: Q04DX003 (ip), vehicle: saline) was 102 % of control, the T/C (endpoint: median survival time, dose: 12.5 mg/kg/injection, schedule: Q04DX003 (ip), vehicle: saline with Tween-80) was 102 % of control and the T/C (endpoint: median survival time, dose: 12.5 mg/kg/injection, schedule: Q04DX003 (ip), vehicle: saline) was 103 % of control. For the same molecule, the T/C (endpoint: median survival time, dose: 25.0 mg/kg/injection, schedule: Q04DX003 (ip), vehicle: saline with Tween-80) was 111 % of control, the T/C (endpoint: median survival time, dose: 25.0 mg/kg/injection, schedule: Q04DX003 (ip), vehicle: saline) was 110 % of control and the T/C (endpoint: median survival time, dose: 50.0 mg/kg/injection, schedule: Q04DX003 (ip), vehicle: saline with Tween-80) was 123 % of control. For the same molecule, the T/C (endpoint: median survival time, dose: 50.0 mg/kg/injection, schedule: Q04DX003 (ip), vehicle: saline) was 110 % of control and the T/C (endpoint: median survival time, dose: 100.0 mg/kg/injection, schedule: Q04DX003 (ip), vehicle: saline) was 121 % of control.

For `O=C1N(CCc2ccccc2)CC2C(c3ccccc3)NNC12O` (stereo unspecified), the T/C [5] was 96 % of control, the T/C [10] was 87 % of control and the T/C [6] was 87 % of control.

With `OC1c2ccccc2-c2ccccc21` the T/C [4] was 88 % of control, the T/C (endpoint: mean survival time, dose: 200.0 mg/kg/injection, schedule: Q01DX009 (ip), vehicle: saline) was 88 % of control and the T/C (endpoint: mean survival time, dose: 400.0 mg/kg/injection, schedule: Q01DX009 (ip), vehicle: saline) was 87 % of control.

With `Cc1ccc(N=C2C=CC(=O)O2)cc1` the T/C [1] was 98 % of control, the T/C [2] was 104 % of control and the T/C [3] was 101 % of control.

`O=C(NC1CCC(CC2CCCCC2)CC1)C(Cl)Cl` (stereo unspecified) was tested, and the T/C [7] was 101 % of control, the T/C [8] was 101 % of control and the T/C [9] was 89 % of control.
